From article PMC3839579 (Food chemistry, 2012)
Blank lines part the entries; values can stand above or below the molecule they belong to.

What was measured:
[1] = type: in vitro ADME, human; settings: preliminary analysis
[2] = Stability of cyanidin chloride in acidified water; type: physicochemical
[3] = Stability of cyanidin chloride, PCA and PGA in saliva; type: in vitro ADME, human
[4] = type: in vitro ADME, human; settings: individual glucosides in RdGrp extract, chlorhexidine rinse

- Chalcone glucosides of Cy as share of the original amount incubated in saliva ex vivo [1]: ≤ 30%
Compound: OC[C@H]1O[C@@H](Oc2cc3c(O)cc(O)cc3[o+]c2-c2ccc(O)c(O)c2)[C@H](O)[C@@H](O)[C@@H]1O [Cy-3-glu, Cyanidin-3-O-glucoside]

- CyCl recovered immediately after addition to acidified water ([2]; 0 min): Greater than 86%
- CyCl lost after incubation in acidified water ([2]; 60 min): greater than 88%
- Cyanidin aglycone degraded upon addition to intact saliva ([3]; human, 0 min, 25 nmol/L): > 90%
- PCA as share of the degraded CyCl in saliva ([3]; human, 0 min, 25 nmol/mL): 15.3%
- PCA as share of the degraded CyCl in saliva ([3]; human, 60 min, 25 nmol/mL): 9.6%
Compound: Oc1cc(O)c2cc(O)c(-c3ccc(O)c(O)c3)[o+]c2c1 [CyCl, cyanidin chloride]

Compound: OC[C@H]1O[C@@H](Oc2cc3c(O)cc(O)cc3[o+]c2-c2cc(O)c(O)c(O)c2)[C@H](O)[C@@H](O)[C@@H]1O [Dp, Delphinidin-3-O-glucoside]
- Decrease of degradation in saliva after antibacterial treatment [4]: 30%

Compound: COc1cc(-c2[o+]c3cc(O)cc(O)c3cc2O[C@@H]2O[C@H](CO)[C@@H](O)[C@H](O)[C@H]2O)cc(OC)c1O [Mv, Malvidin-3-O-glucoside]
- Decrease of degradation in saliva after antibacterial treatment [4]: 50%

- recovery at 60 min, 25 nmol/mL ([3]; human): 90%
Compound: O=C(O)c1ccc(O)c(O)c1 [PCA, protocatechuic acid]

Compound: O=Cc1c(O)cc(O)cc1O [PGA, phloroglucinol aldehyde]
- Recovery after incubation in intact saliva ([3]; 25 nmol/mL, 37 °C, 60 min): 43%

- Decrease of degradation in saliva after antibacterial treatment [4]: 50%
Compound: COc1cc(-c2[o+]c3cc(O)cc(O)c3cc2O[C@@H]2O[C@H](CO)[C@@H](O)[C@H](O)[C@H]2O)ccc1O [Pn, Peonidin-3-O-glucoside]

- Decrease of degradation in saliva after antibacterial treatment [4]: 10%
Compound: COc1cc(-c2[o+]c3cc(O)cc(O)c3cc2O[C@@H]2O[C@H](CO)[C@@H](O)[C@H](O)[C@H]2O)cc(O)c1O [Pt-3-glu, Petunidin-3-O-glucoside]
